The values below come from patent US11622975B2, “Compositions and methods for improved honey bee health” (priority 2019, dated 2023).

The test system of one assay is honey bees. Briefly: Cage survival study of bees fed sublethal doses of pesticides with or without MBCD. Format: in vivo, Apis mellifera. The protocol:
(§1) This example illustrates the baseline effects of the inventive composition in the absence of an exogenous stressor. Samples of European honey bees, Apis mellifera, were collected from colonies maintained in the apiaries of the USDA-ARS Bee Research Laboratory in Beltsville, Md. Frames with emerging brood were removed from colonies and individually placed in a mesh-walled cage. The cages were transferred to an insect growth chamber at 34° C. and 70% humidity. After 24 hrs incubation, newly emerged honey bees were transferred to a honey bee rearing cup, with a top-feeder design, allowing for easy sampling of honey bees (see e.g., Evans et al., 2009). A 3 mL syringe filled with 50% sugar syrup mixture was inverted over the top of the rearing cup to provision the caged honey bees. The honey bees were also provisioned with 1.5 grams of honey bee pollen supplement in patty form (e.g., Bee-Pro®, available from Mann Lake Ltd, Hackensack, Minn.), supplemented 10% (w/w) with ground fresh pollen, and placed on cotton paper on the cup cage bottoms. Syringes and sucrose solution were changed every 3 days and cotton paper was changed once per week.
In this example, whether MBCD mitigates the toxicity of certain pesticides associated with honey bee death was investigated. Not intending to be theory-bound, it was hypothesized that the binding of hydrophobic pesticide molecules to CDs would translate into health benefits to honey bees that were exposed to such pesticides. Samples of honey bees were collected as in example 1. A cage study (n=30 bees per cage & 2 replicate cages per treatment) was performed using 50% sucrose solution that had been spiked with sublethal doses of common pesticides that are known to be toxic to honey bees to measure the ability of treatment MBCD compositions to confer protection to the honey bees. Analytical grade standards of clothianidin, imidacloprid, and chlorpyrifos (available from MilliporeSigma, St. Louis, Mo.) were first dissolved in acetone, then diluted to their final concentrations (Table 2) in 50% sugar syrup. The listed sublethal doses were derived from taking half of the previously published honey bee LD50s (referred to a “LD25” in Table 2). The solutions were administered via 3 mL syringes in rearing cups as previously stated. Fresh pesticide solutions were mixed every 3 days to coincide with syringe replacement (see e.g., Williamson et al., 2013; Li et al, 2017).
Median survival is represented for each treatment by (# days). Curves were compared using Log-Rank Mantel-Cox (p<0.0001 for clothianidin versus control, 1, or 10 μg MBCD; p<0.001 for chlorpyrifos versus control or 1 μg MBCD) and Gehan-Breslow-Wilcoxon (p<0.0001 for clothianidin versus control, 1, or 10 μg MBCD; p<0.05 for chlorpyrifos versus control or 1 μg MBCD). […] The chlorpyrifos treatment was able to reduce median lifespan on its own to 26 days compared to the 36 days of the control (FIG. 2C). While a dosage of 10 μg/bee MBCD did increase median lifespan to 30 days, there was not a significant change in median lifespan.

The subject of assay [1] is honey bees infected with Deformed wing virus. Briefly: Weight of virus-infected honey bees after MBCD treatment. Format: in vivo, Apis mellifera. Particulars: 10 μg/bee MBCD. The protocol: Untreated bees fed only 50% sucrose were compared to bees receiving 10 μg/bee MBCD in 50% sucrose (FIG. 7). Median survival was represented for each treatment by (# days). Curves were compared using Log-Rank Mantel-Cox (p<0.001) and Gehan-Breslow-Wilcoxon (p<0.01). […] The mass ([…]) of control bees was compared to bees fed 10 μg/bee MBCD. Bees were measured 3 (FIG. 8A) and 6 (FIG. 8B) days post feeding. With average bee weight higher along with more bees present, the amount of work accomplished in the hive as a whole would be expected to increase. An unpaired, 2-tailed Student's T-Test was performed to determine statistical significance (p<0.05 at 3 days) and bars denote standard error.

Assay [2] concerns European honey bees, Apis mellifera. Briefly: Longevity of healthy adult worker bees in cage study after MBCD treatment. Format: in vivo. Particulars: healthy newly emerged bees, versus control. The protocol: as §1
Newly emerged honey bees were placed in individual cages (n=30 bees per cage & 2 replicate cages per treatment) and fed using a syringe filled with 50% sucrose alone or supplemented with either 1, 10, or 100 μg MBCD per bee/per week. […]

Turning to methyl-β-cyclodextrin [MBCD], the median lifespan came out at 36.5 days in the assay with honey bees (chlorpyrifos plus 1 μg/bee MBCD, chlorpyrifos alone 26 days); 30 days with honey bees (chlorpyrifos plus 10 μg/bee MBCD, chlorpyrifos alone 26 days); 31 days with honey bees (clothianidin plus 1 μg/bee MBCD, clothianidin alone 13.5 days); 40 days in the assay with honey bees (clothianidin plus 10 μg/bee MBCD, clothianidin alone 13.5 days); 31 days in the assay on honey bees (imidacloprid plus 1 μg/bee MBCD, imidacloprid alone 32 days); 36 days with honey bees (imidacloprid plus 10 μg/bee MBCD, imidacloprid alone 32 days). Also, the “bee weight versus control” value in assay [1] (3 days after feeding) is “significantly higher weight”; in assay [1] (6 days after feeding) it was “statistically comparable”. Moreover, the “increase in median lifespan” value was found to be 9 days in assay [2] (1 μg MBCD per bee/per week in 50% sucrose) and 6.5 days in assay [2] (10 μg MBCD per bee/per week in 50% sucrose).
